The values that follow come from patent publication US10059657B2, “Class-and isoform-specific HDAC inhibitors and uses thereof” (priority 2009, dated 2018).

Test [1] concerns the target T1, Sirtuin3 (Homo sapiens, UniProt Q9NTG7).
T1 sequence (Q9NTG7 1-399): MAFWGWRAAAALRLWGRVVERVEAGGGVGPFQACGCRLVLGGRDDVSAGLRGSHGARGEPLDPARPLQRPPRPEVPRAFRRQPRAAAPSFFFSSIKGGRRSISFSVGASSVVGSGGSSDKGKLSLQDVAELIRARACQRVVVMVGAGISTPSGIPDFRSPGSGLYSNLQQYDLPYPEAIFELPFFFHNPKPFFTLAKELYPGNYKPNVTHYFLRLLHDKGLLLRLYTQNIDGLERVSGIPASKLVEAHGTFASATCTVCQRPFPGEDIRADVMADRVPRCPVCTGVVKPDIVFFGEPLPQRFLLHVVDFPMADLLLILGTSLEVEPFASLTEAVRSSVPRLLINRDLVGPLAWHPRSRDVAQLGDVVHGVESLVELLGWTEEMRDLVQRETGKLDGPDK
Description: Sirtuin activity assay, Sirtuin3. The format is biochemical. Conditions: highest testing concentration. The procedure:
(§1) A series of compound dilutions (10 fold higher than final concentrations) are made in 10% DMSO in HDAC assay buffer. 5 μl of each dilution is added to 50 μl of the reaction mixture so that the final concentration of DMSO is 1% in all of reactions.
(§2) All of the enzymatic reactions were conducted in duplicate at room temperature for 3 hours in a 50 μl mixture containing HDAC assay buffer, 5 μg BSA, 100 μM NAD^+, 10 μM HDAC substrate 1, a sirtuin enzyme, and the test compound.
(§3) After enzymatic reactions, 50 μl of 2×HDAC Developer was added to each well and the plate was incubated at room temperature for an additional 20 minutes. Fluorescence intensity was measured at an excitation of 360 nm and an emission of 460 nm using a BioTek Synergy™ 2 microplate reader.
(§4) Sirtuin activity assays were performed in duplicates at each concentration. The fluorescent intensity data were analyzed using the computer software, Graphpad Prism. […] The percent activity in the presence of each compound was calculated according to the following equation: % activity=(F−Fb)/(Ft−Fb), where F=the fluorescent intensity in the presence of the compound, Fb=the fluorescent intensity in the absence of the sirtuin, and Ft=the fluorescent intensity in the absence of the compound. […]
(§5) If the IC50 value is not available, the % inhibition of the compound at the highest testing concentration was calculated.

The target of test [2] is T2, Sirtuin2 (Homo sapiens, UniProt Q8IXJ6).
T2 sequence (Q8IXJ6 1-389): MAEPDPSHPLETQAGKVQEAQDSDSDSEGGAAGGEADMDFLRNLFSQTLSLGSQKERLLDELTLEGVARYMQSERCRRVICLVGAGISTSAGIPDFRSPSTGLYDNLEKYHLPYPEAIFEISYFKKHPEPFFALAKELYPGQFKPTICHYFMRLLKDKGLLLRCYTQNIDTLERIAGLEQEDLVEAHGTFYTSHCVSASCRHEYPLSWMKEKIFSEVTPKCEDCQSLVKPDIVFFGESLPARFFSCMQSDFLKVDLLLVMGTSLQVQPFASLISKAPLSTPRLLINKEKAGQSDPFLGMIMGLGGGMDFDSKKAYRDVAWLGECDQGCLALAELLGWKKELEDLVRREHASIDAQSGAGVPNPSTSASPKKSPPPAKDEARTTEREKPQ
Description: Sirtuin activity assay, Sirtuin2. The format is biochemical. Conditions: highest testing concentration. The procedure:
as §1, §2, §3, §4, §5

Test [3] deals with T3, H976Y HDAC4 gain of function mutant (Homo sapiens, UniProt P56524, H976Y).
T3 sequence (P56524 1-1084 H976Y): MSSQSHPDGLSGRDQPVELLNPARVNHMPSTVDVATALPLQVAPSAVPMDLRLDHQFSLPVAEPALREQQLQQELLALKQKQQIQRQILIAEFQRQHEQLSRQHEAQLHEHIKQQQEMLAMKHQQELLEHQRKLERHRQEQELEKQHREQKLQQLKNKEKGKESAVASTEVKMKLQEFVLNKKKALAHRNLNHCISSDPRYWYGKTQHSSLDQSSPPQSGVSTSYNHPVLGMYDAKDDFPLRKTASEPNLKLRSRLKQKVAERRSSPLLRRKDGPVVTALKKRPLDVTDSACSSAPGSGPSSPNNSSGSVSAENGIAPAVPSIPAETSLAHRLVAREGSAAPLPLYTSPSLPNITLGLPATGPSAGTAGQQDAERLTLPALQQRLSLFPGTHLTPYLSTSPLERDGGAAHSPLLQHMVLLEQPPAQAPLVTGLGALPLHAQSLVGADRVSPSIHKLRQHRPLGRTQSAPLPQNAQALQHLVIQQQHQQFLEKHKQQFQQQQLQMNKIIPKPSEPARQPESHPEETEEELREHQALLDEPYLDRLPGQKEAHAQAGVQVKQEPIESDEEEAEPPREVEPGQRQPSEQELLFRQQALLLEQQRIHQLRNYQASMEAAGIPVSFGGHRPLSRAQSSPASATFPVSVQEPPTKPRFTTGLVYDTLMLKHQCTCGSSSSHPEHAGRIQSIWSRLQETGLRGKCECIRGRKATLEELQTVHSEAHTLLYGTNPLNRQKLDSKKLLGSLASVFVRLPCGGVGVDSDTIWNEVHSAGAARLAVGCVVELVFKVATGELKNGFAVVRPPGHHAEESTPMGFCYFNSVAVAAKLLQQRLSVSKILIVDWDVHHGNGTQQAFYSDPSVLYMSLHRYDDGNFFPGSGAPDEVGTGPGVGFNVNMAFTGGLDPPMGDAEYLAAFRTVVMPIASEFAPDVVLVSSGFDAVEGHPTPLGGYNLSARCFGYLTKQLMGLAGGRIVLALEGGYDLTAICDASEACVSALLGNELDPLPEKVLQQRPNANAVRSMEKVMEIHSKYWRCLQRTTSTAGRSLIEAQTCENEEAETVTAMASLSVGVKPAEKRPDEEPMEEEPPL
As to conditions: H976Y mutant compared with HDAC4; cited from earlier work.

Test [4] has as its system HDAC1-9. In words: Biochemical HDAC assay, profiling against HDAC1-9. Also noted: species or system human. Conditions: dose-response, mean of three replicates.
Description: The inhibitory effect of compounds on HDAC1-9 function was determined in vitro using an optimized homogenous assay performed in 384-well plate format. […] Reactions are performed in assay buffer (50 mM HEPES, 100 mM KCl, 0.001% Tween-20, 0.05% BSA, 200 μM TCEP, pH 7.4) and followed for fluorigenic release of 7-amino-4-methylcoumarin from substrate upon deacetylase and trypsin enzymatic activity. Fluorescence measurements are obtained approximately every five minutes using a multilabel plate reader and plate-stacker (Envision; Perkin-Elmer). Data are analyzed on a plate-by-plate basis for the linear range of fluorescence over time. The first derivative of data obtained from the plate capture corresponding to the mid-linear range is imported into analytical software and annotated with well identity and compound concentration (Spotfire DecisionSite). Replicate experimental data from incubations with inhibitor are normalized to control, solvent-only wells.
Data are analyzed by logistic regression with determination of IC50 and standard deviation (Spotfire DecisionSite and GraphPad Prism). Calculation of Ki is determined using a derivation of the standard formula Ki=[Inhibitor]/((VON;)*(1+S/Km))−[Substrate]/Km)−1. […]

As for `O=C(/C=C/c1ccc(C(=O)N/N=C/c2ccc(O)c(O)c2O)cc1)NO` [pandacostat, (E)-N-hydroxy-3-(4-((E)-2-(2,3,4-trihydroxybenzylidene) hydrazinecarbonyl)phenyl) acrylamide], the results for the inhibition at 100 µM in test [1] and in test [2] were about 57% and about 62%, respectively.
Turning to `O=C(/C=C/c1ccc(CN(CCO)CCc2c[nH]c3ccccc23)cc1)NO` [LAQ-824], the “increased affinity for the H976Y HDAC4 gain of function mutant” value in test [3] is 100 fold.
On to `O=C(CCCCCCC(=O)Nc1ccccc1)NO` [SAHA], for which, in test [4], the “inhibition of HDAC1-9, isoform selectivity profile” value is reported as “unexpected selectivity”.
Same read-out and setting: with trichostatin A [TSA] the entry was “unexpected selectivity”.
